Converted amounts (≈) assume the structure as drawn.

One experiment concerns A549. The experiment is described as follows: Cytotoxicity against human A549 cells by MTT assay. Type of experiment: functional, cell-based. A general note: Formazan colour is commonly taken as a measure of viable cells.
By IC50 is commonly meant the midpoint of a concentration-inhibition curve. With `C=C1CC[C@@H]2[C@]3(C)CO[C@@H](CC)O[C@@H]3CC[C@@]2(C)[C@@H]1C/C=C1/C(=O)OC[C@H]1O`, the half-maximal inhibitory concentration (IC50) worked out at 8.12 µg/mL (≈ 20.8 µM).
Still for that read-out and setting: next, `C=C1CC[C@@H]2[C@]3(C)CO[C@@H](CCCCC)O[C@@H]3CC[C@@]2(C)[C@@H]1C/C=C1/C(=O)OC[C@H]1O`: 7.07 µg/mL (≈ 16.3 µM); `C=C1CC[C@@H]2[C@]3(C)CO[C@@H](C)O[C@@H]3CC[C@@]2(C)[C@@H]1C/C=C1/C(=O)OC[C@H]1OC(C)=O`: 3.34 µg/mL (≈ 7.98 µM).
Same read-out and setting: to `C=C1CC[C@@H]2[C@]3(C)CO[C@@H](CCCC)O[C@@H]3CC[C@@]2(C)[C@@H]1C/C=C1/C(=O)OC[C@H]1O` belongs 33.5 µg/mL (≈ 80.1 µM); to `C=C1CC[C@@H]2[C@](C)(CO)[C@H](O)CC[C@@]2(C)[C@@H]1C/C=C1/C(=O)OC[C@H]1O` [ANDROGRAPHOLIDE], 9.71 µg/mL (≈ 27.7 µM); to `C=C1CC[C@@H]2[C@]3(C)CO[C@@H](C)O[C@@H]3CC[C@@]2(C)[C@@H]1C/C=C1/C(=O)OC[C@H]1O`, 2.43 µg/mL (≈ 6.45 µM).
Still for that read-out and setting: next, `C=C1CC[C@@H]2[C@](C)(CO)[C@H](O)CC[C@@]2(C)[C@@H]1/C=C/C1=CCOC1=O`: 117 µg/mL (≈ 353 µM).

Another experiment has as its system B16. Briefly: Cytotoxicity against mouse B16 cells by MTT assay. The experiment is classed as functional, cell-based.
Take `C=C1CC[C@@H]2[C@]3(C)CO[C@@H](CC)O[C@@H]3CC[C@@]2(C)[C@@H]1C/C=C1/C(=O)OC[C@H]1O`: the IC50 turned out to be 10.2 µg/mL (≈ 26.2 µM).
For the compound `C=C1CC[C@@H]2[C@]3(C)CO[C@@H](CCCCC)O[C@@H]3CC[C@@]2(C)[C@@H]1C/C=C1/C(=O)OC[C@H]1O`, the IC50 came out at 10 µg/mL (≈ 23.1 µM).
Same read-out and setting: next, `C=C1CC[C@@H]2[C@]3(C)CO[C@@H](C)O[C@@H]3CC[C@@]2(C)[C@@H]1C/C=C1/C(=O)OC[C@H]1OC(C)=O`: 4.01 µg/mL (≈ 9.58 µM).
In turn, `C=C1CC[C@@H]2[C@]3(C)CO[C@@H](CCCC)O[C@@H]3CC[C@@]2(C)[C@@H]1C/C=C1/C(=O)OC[C@H]1O` yielded an IC50 of 21.1 µg/mL (≈ 50.4 µM).
The compound `C=C1CC[C@@H]2[C@](C)(CO)[C@H](O)CC[C@@]2(C)[C@@H]1C/C=C1/C(=O)OC[C@H]1O` [ANDROGRAPHOLIDE] came in with an IC50 of 7.54 µg/mL (≈ 21.5 µM).
Same read-out and setting: to `COc1cccc2c1C(=O)c1c(O)c3c(c(O)c1C2=O)C[C@@](O)(C(=O)CO)C[C@@H]3O[C@H]1C[C@H](N)[C@H](O)[C@H](C)O1` [DOXORUBICIN] belongs 3.16 µg/mL (≈ 5.81 µM); to `C=C1CC[C@@H]2[C@]3(C)CO[C@@H](C)O[C@@H]3CC[C@@]2(C)[C@@H]1C/C=C1/C(=O)OC[C@H]1O`, 4.78 µg/mL (≈ 12.7 µM).
For `C=C1CC[C@@H]2[C@](C)(CO)[C@H](O)CC[C@@]2(C)[C@@H]1/C=C/C1=CCOC1=O`, the concentration for half-maximal inhibition (IC50) stood at 25.2 µg/mL (≈ 75.7 µM).

In a further experiment the test system is HeLa. The experiment is described as follows: Cytotoxicity against human HeLa cells by MTT assay. The experiment is classed as functional, cell-based.
For the compound `C=C1CC[C@@H]2[C@]3(C)CO[C@@H](CC)O[C@@H]3CC[C@@]2(C)[C@@H]1C/C=C1/C(=O)OC[C@H]1O`, the IC50 was 8.91 µg/mL (≈ 22.8 µM).
The same measure, in the same setting: to `C=C1CC[C@@H]2[C@]3(C)CO[C@@H](CCCCC)O[C@@H]3CC[C@@]2(C)[C@@H]1C/C=C1/C(=O)OC[C@H]1O` belongs 8.51 µg/mL (≈ 19.7 µM); to `C=C1CC[C@@H]2[C@]3(C)CO[C@@H](C)O[C@@H]3CC[C@@]2(C)[C@@H]1C/C=C1/C(=O)OC[C@H]1OC(C)=O`, 4.43 µg/mL (≈ 10.6 µM).
Same read-out and setting: next, `C=C1CC[C@@H]2[C@]3(C)CO[C@@H](CCCC)O[C@@H]3CC[C@@]2(C)[C@@H]1C/C=C1/C(=O)OC[C@H]1O`: 14.1 µg/mL (≈ 33.6 µM); `C=C1CC[C@@H]2[C@](C)(CO)[C@H](O)CC[C@@]2(C)[C@@H]1C/C=C1/C(=O)OC[C@H]1O` [ANDROGRAPHOLIDE]: 10.4 µg/mL (≈ 29.7 µM); `COc1cccc2c1C(=O)c1c(O)c3c(c(O)c1C2=O)C[C@@](O)(C(=O)CO)C[C@@H]3O[C@H]1C[C@H](N)[C@H](O)[C@H](C)O1` [DOXORUBICIN]: 1.28 µg/mL (≈ 2.35 µM).
Still for that read-out and setting: next, `C=C1CC[C@@H]2[C@]3(C)CO[C@@H](C)O[C@@H]3CC[C@@]2(C)[C@@H]1C/C=C1/C(=O)OC[C@H]1O`: 4.27 µg/mL (≈ 11.3 µM); `C=C1CC[C@@H]2[C@](C)(CO)[C@H](O)CC[C@@]2(C)[C@@H]1/C=C/C1=CCOC1=O`: 149 µg/mL (≈ 448 µM).

For the next experiment, the system named is ACHN. Briefly: Cytotoxicity against human ACHN cells by MTT assay. Type of experiment: functional, cell-based.
Regarding `C=C1CC[C@@H]2[C@]3(C)CO[C@@H](CC)O[C@@H]3CC[C@@]2(C)[C@@H]1C/C=C1/C(=O)OC[C@H]1O`, the IC50 worked out at 14.7 µg/mL (≈ 37.6 µM).
As to `C=C1CC[C@@H]2[C@]3(C)CO[C@@H](CCCCC)O[C@@H]3CC[C@@]2(C)[C@@H]1C/C=C1/C(=O)OC[C@H]1O`, the midpoint of inhibition, the IC50, lay at 9.54 µg/mL (≈ 22.1 µM).
Same read-out and setting: next, `C=C1CC[C@@H]2[C@]3(C)CO[C@@H](C)O[C@@H]3CC[C@@]2(C)[C@@H]1C/C=C1/C(=O)OC[C@H]1OC(C)=O`: 8.54 µg/mL (≈ 20.4 µM); `C=C1CC[C@@H]2[C@]3(C)CO[C@@H](CCCC)O[C@@H]3CC[C@@]2(C)[C@@H]1C/C=C1/C(=O)OC[C@H]1O`: 15.3 µg/mL (≈ 36.7 µM).
Still for that read-out and setting: to `C=C1CC[C@@H]2[C@](C)(CO)[C@H](O)CC[C@@]2(C)[C@@H]1C/C=C1/C(=O)OC[C@H]1O` [ANDROGRAPHOLIDE] belongs 3.03 µg/mL (≈ 8.65 µM); to `COc1cccc2c1C(=O)c1c(O)c3c(c(O)c1C2=O)C[C@@](O)(C(=O)CO)C[C@@H]3O[C@H]1C[C@H](N)[C@H](O)[C@H](C)O1` [DOXORUBICIN], 2.08 µg/mL (≈ 3.83 µM).
Compound `C=C1CC[C@@H]2[C@]3(C)CO[C@@H](C)O[C@@H]3CC[C@@]2(C)[C@@H]1C/C=C1/C(=O)OC[C@H]1O` returned an IC50 of 2.47 µg/mL (≈ 6.56 µM).
On the same count and under the same terms, to `C=C1CC[C@@H]2[C@](C)(CO)[C@H](O)CC[C@@]2(C)[C@@H]1/C=C/C1=CCOC1=O` belongs 328 µg/mL (≈ 986 µM).

Test system in the next experiment: not listed separately
The experiment is described as follows: Cytotoxicity against rat IEC-6 cells by MTT assay. The experiment is classed as cell-based.
Compound `C=C1CC[C@@H]2[C@]3(C)CO[C@@H](CC)O[C@@H]3CC[C@@]2(C)[C@@H]1C/C=C1/C(=O)OC[C@H]1O` showed an IC50 of 14.2 µg/mL (≈ 36.4 µM).
The same measure, in the same setting: to `C=C1CC[C@@H]2[C@]3(C)CO[C@@H](CCCCC)O[C@@H]3CC[C@@]2(C)[C@@H]1C/C=C1/C(=O)OC[C@H]1O` belongs 22.4 µg/mL (≈ 51.7 µM); to `C=C1CC[C@@H]2[C@]3(C)CO[C@@H](C)O[C@@H]3CC[C@@]2(C)[C@@H]1C/C=C1/C(=O)OC[C@H]1OC(C)=O`, 7.23 µg/mL (≈ 17.3 µM).
For `C=C1CC[C@@H]2[C@]3(C)CO[C@@H](CCCC)O[C@@H]3CC[C@@]2(C)[C@@H]1C/C=C1/C(=O)OC[C@H]1O`, 31.2 µg/mL (≈ 74.6 µM) corresponded to half-maximal inhibition (IC50).
As for `C=C1CC[C@@H]2[C@](C)(CO)[C@H](O)CC[C@@]2(C)[C@@H]1C/C=C1/C(=O)OC[C@H]1O` [ANDROGRAPHOLIDE], the IC50 amounted to 8.26 µg/mL (≈ 23.6 µM).
The same measure, in the same setting: to `COc1cccc2c1C(=O)c1c(O)c3c(c(O)c1C2=O)C[C@@](O)(C(=O)CO)C[C@@H]3O[C@H]1C[C@H](N)[C@H](O)[C@H](C)O1` [DOXORUBICIN] belongs 2.6 µg/mL (≈ 4.78 µM); to `C=C1CC[C@@H]2[C@]3(C)CO[C@@H](C)O[C@@H]3CC[C@@]2(C)[C@@H]1C/C=C1/C(=O)OC[C@H]1O`, 6.34 µg/mL (≈ 16.8 µM).
The same measure, in the same setting: to `C=C1CC[C@@H]2[C@](C)(CO)[C@H](O)CC[C@@]2(C)[C@@H]1/C=C/C1=CCOC1=O` belongs 169 µg/mL (≈ 509 µM).

Values taken from ChEMBL document CHEMBL3739374, “Synthesis and evaluation of anticancer activity of novel andrographolide derivatives” (Medchemcomm, 2015).
